{"source": "patent US20260060239A1", "about": "“NATURAL-BASED SALICYLIC ACID POLY(ANHYDRIDE ESTER) HYDROGELS FOR AGRICULTURAL APPLICATIONS” (The Regents of The University of California, priority 2022, published 2026)", "key": {"[1]": {"tested_on": "micro-tom tomato plants", "assay": "Treatment window under drought stress conditions (water supply removed)", "format": "in vivo", "conditions": "for first death under drought: FIG. 12", "procedure": "Plants were incubated under normal conditions for 16 days. […] The Percival chambers were used to mimic environmental conditions.\n(§1) All plants received 75 mL right after dose application. […] Death plants were removed from the study.\n(§2) The treatment window corresponds to the period of time where the groups were exposed to either normal conditions with abundant water supply or to intense drought stress conditions where the water supply was completely removed until plants were found dead. At day 48 of the plant cycle, groups correspondent to the drought condition had all the water removed from the tray and were kept in the chamber. Plants under normal conditions had regularly water exchange two times a week until the end of the plant cycle. All plants were closely monitored, and visible observations were recorded, including measurements of plant height, number of leaves, branches, flower buds, flowers, and tomatoed were taken regularly. Clay and fertilizer were applied as needed and dead plants were removed from the study."}, "[2]": {"tested_on": "micro-tom tomato plants", "format": "in vivo", "procedure": "The Percival chambers were used to mimic environmental conditions.\nas §1\nas §2, with “At” for “The treatment window corresponds to the period of time where the groups were exposed to either normal conditions with abundant water supply or to intense drought stress conditions where the water supply was completely removed until plants were found dead. At”\nThe harvest day was determined by the abundant number of red tomatoes: plant measurements were performed as described above. Plants were removed from their pots and clay was washed out of the roots. Tomatoes were harvested, photographed, and measured (diameter, height and mass). Individual plants were also photographed. Root and plant length was recorded, and plant mass was measured using a scale."}, "[3]": {"tested_on": "micro-tom tomato plants", "conditions": "for percent plant growth (plant height) during dosage window: FIG. 9A", "procedure": "Exogenous application of salicylic acid favors plants under stress by regulating processes such as photosynthesis, membrane permeability, nutrient uptake, transpiration, and the activity of antioxidant enzymes. […] Final measurements of plant height, water content, root length, and tomato production yield were also performed.\nMicro-tom was germinated from seeds under hydroponic conditions and grown under vertical farming conditions. Soilless clay media was used, and smart fertilizer was applied. Plants were incubated under normal conditions for 16 days. Seedlings were then transplanted using pre-wet clay and incubated under normal conditions in Percival chambers with abundant water supply and regular water exchanges for an additional 34 days. The Percival chambers were used to mimic environmental conditions. The day and night cycles were set for 16 hour (day) at 25° C. followed by 8 hour (night) at 25° C. CO2 levels were maintained at 410 ppm with 70% relative humidity.\nEach plant was labeled, and initial measurements were taken including plant height, total number of leaves, branches, and total number of flower buds, flowers and tomatoes if applicable. Individual group pictures were taken as visual record and first dose was applied accordantly to the group's requirements and schedules (FIG. 7). Dose regimen was similar between all groups with a total duration of 7 days (Dosage Window). Doses were applied at days 0, 2 and 4 of the dosage window. Remaining water in the group trays were removed right before dose applications. Chemicals were applied as a powder directly in the clay surface avoiding contact with the plant. All plants received 75 mL right after dose application. At day 7, remaining water in the trays were removed, final plants measurements and visual observation was recorded. Death plants were removed from the study. Extra clay and fertilizer were added, and DI-water was applied to all plants: 150 mL to normal plants and 50 mL to drought plants to activate the fertilizer."}, "[4]": {"conditions": "3x: three dosages of 0.05 mmol SA"}}, "note": "Like-named read-outs stand apart in the source and are kept apart here.", "data": [{"compound": "O=C(O)c1ccccc1O", "note": "[SA, salicylic acid]", "values": [{"measurement": "first death under drought", "setting": "[1]; 1x: single dose 0.15 mmol SA or equivalent, day of treatment window", "value": 17, "unit": "days"}, {"measurement": "first death under drought", "setting": "[1]; [4]", "value": 20, "unit": "days"}, {"measurement": "flower production under drought stress", "setting": "[1]; 3x, 14 days treatment time point, flower buds, no opened flowers, FIG. 11", "value": "second-best group"}, {"measurement": "plants dead at time of harvest", "setting": "[2]; 1x, across the study, FIG. 15", "value": "three"}, {"measurement": "total number of red tomatoes per group", "setting": "[2]; 1x, harvest day, FIG. 19B", "value": "least number of red tomatoes"}, {"measurement": "percent plant growth after 14 days", "setting": "[2]; 1x, normal conditions, FIG. 10A", "value": "lowest percent growth"}, {"measurement": "variation of number of branches during the treatment window", "setting": "[2]; 1x, normal conditions, FIG. 13B", "value": "highest variation"}, {"measurement": "roots holding the clay after removal from the pot", "setting": "[2]; 3x, harvest", "value": "stronger at holding the clay in place"}, {"measurement": "total number of tomatoes per group", "setting": "[2]; 3x, harvest day, compared with DI water, FIG. 19A", "value": "similar"}, {"measurement": "percent plant growth (plant height) during dosage window", "setting": "[3]; 1x: single dose 0.15 mmol SA or equivalent", "value": "negligible"}, {"measurement": "variation in the number of branches during dosage window", "setting": "[3]; 1x: single dose 0.15 mmol, FIG. 9B", "value": "decrease"}, {"measurement": "stress and deaths after the dosage window", "setting": "[3]; 1x: single powder dose, 0.15 mmol SA (or equivalent in polymer) per plant, FIG. 8", "value": "more harmful"}, {"measurement": "percent plant growth (plant height) during dosage window", "setting": "[3]; [4]", "value": "smaller than the DI-water control group"}, {"measurement": "stress caused during dosage window", "setting": "[3]; 3x: three dosages of 0.05 mmol SA, compared with SA 1x", "value": "less significative"}, {"measurement": "plants mortality right after treatment", "setting": "[3]; compared with SAPAE", "value": "higher"}]}]}
